The values that follow come from PubChem BioAssay (NCI).

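Briefly, cells in 96-well plates were exposed to five compound concentrations for 48 h, and endpoints were estimated by linear interpolation. TGI: total growth inhibition.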

Holding throughout (assay): NCI tumour cell line growth inhibition, 48 h
Test [1] has as its system HS 578T breast.
The subject of test [2] is MDA-MB-435.
In test [3] the test system is SK-OV-3 ovarian.
For test [4], the system named is LOX IMVI melanoma.
Test [5] relates to MALME-3M melanoma.
In test [6] the test system is HOP-92 NSCLC.
Test [7] relates to OVCAR-5 ovarian.
Test [8] relates to RPMI-8226 leukemia.
For test [9], the system named is T-47D breast.
The test system of test [10] is HOP-62 NSCLC.
The subject of test [11] is U251 CNS.
In test [12] the test system is ACHN renal.
In test [13] the test system is UACC-257 melanoma.
Test [14] concerns K-562 leukemia.
Test [15] deals with SK-MEL-28 melanoma.
In test [16] the test system is EKVX NSCLC.

On to `CN(C)C=NCc1ccc2c(c1)OCO2`, for which the TGI in test [1], in test [2], in test [3], in test [4], in [5] and in test [6] was above 100 µM in each case. Further, the TGI in [7], in test [8], in test [9], in [10], in [11] and in test [12] was above 100 µM in each case. Further, the TGI in test [13], in test [14], in [15] and in test [16] was above 100 µM in each case.
For `CCOC(=O)CCC(NC(=O)c1ccc(OCc2ccc3nc(OC)c(OC)nc3c2)cc1)C(=O)OCC` (stereo not drawn), the TGI is above 100 µM in test [1]; 91.1 µM in [2]; above 100 µM in test [3]; above 100 µM in test [4]; 69.2 µM in [5]; above 100 µM in test [6]. Moreover, the TGI in test [7], in test [8], in [9], in test [10], in [11] and in [12] was above 100 µM throughout. For the same molecule, the TGI in test [13], in test [14] and in test [15] was above 100 µM throughout.
Turning to `O=C1NC(=O)/C(=C/c2ccc(S(=O)(=O)N/N=C/c3ccccc3)cc2)N1`, the TGI in [1], in [2], in [3], in [4], in test [5] and in [6] was above 100 µM in each case. The TGI in test [7], in test [8], in test [9], in [10], in test [11] and in [12] was above 100 µM in each case. Further, the TGI in test [13], in test [14], in test [15] and in [16] was above 100 µM in each case.
Take `Nc1nc(Cl)cc(NCC2(CO)CC(c3ccccc3)C2)n1` (stereo not drawn): the TGI in test [1] was 83.8 µM; in test [2], above 100 µM; in [3], above 100 µM; in test [4] it was above 100 µM; in test [5] it was above 100 µM; in test [6] it was above 100 µM. Further, the TGI in [7], in test [8], in [9], in [10], in test [11] and in test [12] was above 100 µM each time. Also, the TGI in test [13] is above 100 µM; in test [14], above 100 µM; in [15], above 100 µM; in test [16] it was 84.5 µM.
Turning to `CCSC1=C(C#N)C2(CCCCC2)C2=C(CC(C)(C)CC2=O)N1`, the TGI was above 100 µM in test [1]; above 100 µM in test [2]; above 100 µM in test [4]; 78.2 µM in test [5]; 43.1 µM in [6]; above 100 µM in test [7]. Moreover, the TGI in test [8] is above 100 µM; in test [9], above 100 µM; in [11], above 100 µM; in test [12] it was 74.2 µM; in test [13] it was above 100 µM; in test [14], above 100 µM. For the same molecule, the TGI in test [15] is above 100 µM; in test [16], 68.4 µM.
On to `N#CC12CC=C(c3ccccc3)N=C1NC(c1ccccc1)=CC2` (stereo not drawn), for which the TGI in test [1] is above 100 µM; in test [2], above 100 µM; in test [3], above 100 µM; in [4], above 100 µM; in test [5] it was above 100 µM; in [6], 92.2 µM. Besides, the TGI in test [7] was above 100 µM; in test [8] it was 73.8 µM; in test [9], above 100 µM; in test [10], above 100 µM; in test [11] it was above 100 µM; in test [12], above 100 µM. For the same molecule, the TGI in test [13], in test [14], in [15] and in test [16] was above 100 µM in each case.
With `c1ccc(CNCCCNCCCCNCCCNCc2ccccc2)cc1`, the TGI was determined as 3.74 µM in test [1]; 8.91 µM in [2]; 31 µM in test [3]; 14.2 µM in test [4]; 5.01 µM in test [5]; 3.57 µM in test [6]. For the same molecule, the TGI in [7] came to 16.2 µM; in test [8], 13.7 µM; in test [9], 39.8 µM; in [10], 17.1 µM; in test [11], 22.5 µM; in test [12], 21.4 µM. The TGI in test [13] turned out to be 31.1 µM; in test [15] it was 26.7 µM; in test [16], 23.1 µM.
As to `CC1(C)CC(=O)C(CC2C(=O)c3ccccc3C2=O)C(=O)C1C(=O)C(=O)Nc1cccc2ccc(O)cc12` (stereo not drawn), the TGI in test [1], in test [2], in test [3], in test [4], in test [5] and in [6] was above 100 µM each time. The TGI in [7], in test [8], in test [9], in test [11], in [12] and in [13] was above 100 µM in each case. Further, the TGI in test [14], in [15] and in test [16] was above 100 µM in each case.
Turning to `C=CCC1(O)C(=O)OC2C(O)COC21O` (stereo not drawn), the TGI in test [1], in [2], in test [3], in test [4], in test [5] and in test [6] was above 100 µM each time. Further, the TGI in [7], in test [9], in test [10], in test [11], in test [12] and in test [13] was above 100 µM in each case. The TGI in test [14], in [15] and in test [16] was above 100 µM in each case.
